Assay results taken from PubChem BioAssay AID1259407 (Chemical Carcinogenesis Research Information System (CCRIS), 2018).
Active and inactive are the calls of the source. No rule for the calls is given here.

System: CCRIS mutagenicity, Ames/micronucleus/aberration tests
Test: CCRIS mutagenicity studies
[1] = Test System: AMES SALMONELLA TYPHIMURIUM, Strain/Indicator: TA98, Metabolic Activation: HAMSTER, LIVER, S-9, AROCLOR 1254 (10%), Method: PREINCUBATION
[2] = Test System: AMES SALMONELLA TYPHIMURIUM, Strain/Indicator: TA98, Metabolic Activation: RAT, LIVER, S-9, AROCLOR 1254 (10%), Method: PREINCUBATION
[3] = Test System: AMES SALMONELLA TYPHIMURIUM, Strain/Indicator: TA100, Metabolic Activation: NONE, Method: PREINCUBATION
[4] = Test System: AMES SALMONELLA TYPHIMURIUM, Strain/Indicator: TA100, Metabolic Activation: RAT, LIVER, S-9, AROCLOR 1254 (10%), Method: PREINCUBATION
[5] = Test System: AMES SALMONELLA TYPHIMURIUM, Strain/Indicator: TA1535, Metabolic Activation: HAMSTER, LIVER, S-9, AROCLOR 1254 (10%), Method: PREINCUBATION
[6] = Test System: AMES SALMONELLA TYPHIMURIUM, Strain/Indicator: TA1535, Metabolic Activation: NONE, Method: PREINCUBATION
[7] = Test System: AMES SALMONELLA TYPHIMURIUM, Strain/Indicator: TA1535, Metabolic Activation: RAT, LIVER, S-9, AROCLOR 1254 (10%), Method: PREINCUBATION

Measured: mutagenic call

C=C1C/C(=C/C)C(=O)O[C@@H]2CCN3CC=C(COC(=O)[C@]1(C)O)[C@H]23
active: Test System: AMES SALMONELLA TYPHIMURIUM, Strain/Indicator: TA100, Metabolic Activation: HAMSTER, LIVER, S-9, AROCLOR 1254 (10 OR 30%), Method: PREINCUBATION active; positive | Test System: UDS HAMSTER HEPATOCYTES, Strain/Indicator: THY INCORP, Metabolic Activation: NONE, Method: AUTORADIOGRAPHY active; positive | Test System: UDS MOUSE HEPATOCYTES, Strain/Indicator: THY INCORP, Metabolic Activation: NONE, Method: AUTORADIOGRAPHY active; positive | Test System: UDS RAT HEPATOCYTES, Strain/Indicator: THY INCORP, Metabolic Activation: NONE, Method: AUTORADIOGRAPHY active; positive
inactive: Test System: AMES SALMONELLA TYPHIMURIUM, Strain/Indicator: TA97, Metabolic Activation: HAMSTER, LIVER, S-9, AROCLOR 1254 (5, 10 OR 30%), Method: PREINCUBATION inactive; negative | Test System: AMES SALMONELLA TYPHIMURIUM, Strain/Indicator: TA97, Metabolic Activation: NONE, Method: PREINCUBATION inactive; negative | Test System: AMES SALMONELLA TYPHIMURIUM, Strain/Indicator: TA97, Metabolic Activation: RAT, LIVER, S-9, AROCLOR 1254 (5, 10 OR 30%), Method: PREINCUBATION inactive; negative | [1] inactive; negative | Test System: AMES SALMONELLA TYPHIMURIUM, Strain/Indicator: TA98, Metabolic Activation: NONE, Method: PREINCUBATION inactive; negative | [2] inactive; negative | Test System: AMES SALMONELLA TYPHIMURIUM, Strain/Indicator: TA100, Metabolic Activation: HAMSTER, LIVER, S-9, AROCLOR 1254 (5%), Method: PREINCUBATION inactive; negative | Test System: AMES SALMONELLA TYPHIMURIUM, Strain/Indicator: TA100, Metabolic Activation: HAMSTER, LIVER, S-9, PCB, Method: PREINCUBATION inactive; negative | [3] inactive; negative | Test System: AMES SALMONELLA TYPHIMURIUM, Strain/Indicator: TA100, Metabolic Activation: RAT, LIVER, S-9, AROCLOR 1254 (5 OR 30%), Method: PREINCUBATION inactive; negative | [4] inactive; negative | Test System: AMES SALMONELLA TYPHIMURIUM, Strain/Indicator: TA100, Metabolic Activation: RAT, LIVER, S-9, PCB, Method: PREINCUBATION inactive; negative | Test System: AMES SALMONELLA TYPHIMURIUM, Strain/Indicator: TA100, Metabolic Activation: RAT, LIVER, S-9, SODIUM PHENOBARBITAL AND BETA-NAPHTHOFLAVONE, Method: PREINCUBATION inactive; negative | [5] inactive; negative | [6] inactive; negative | [7] inactive; negative

ClC(Cl)(Cl)Br
active: Test System: AMES SALMONELLA TYPHIMURIUM, Strain/Indicator: TA97, Metabolic Activation: NONE, Method: STANDARD PLATE active; positive | Test System: AMES SALMONELLA TYPHIMURIUM, Strain/Indicator: TA97, Metabolic Activation: RAT, LIVER, S-9, AROCLOR 1254, Method: STANDARD PLATE active; positive | Test System: AMES SALMONELLA TYPHIMURIUM, Strain/Indicator: TA98, Metabolic Activation: NONE, Method: STANDARD PLATE active; positive | Test System: AMES SALMONELLA TYPHIMURIUM, Strain/Indicator: TA104, Metabolic Activation: NONE, Method: STANDARD PLATE active; positive | Test System: AMES SALMONELLA TYPHIMURIUM, Strain/Indicator: TA104, Metabolic Activation: RAT, LIVER, S-9, AROCLOR 1254, Method: STANDARD PLATE active; positive
inactive: Test System: AMES SALMONELLA TYPHIMURIUM, Strain/Indicator: TA98, Metabolic Activation: RAT, LIVER, S-9, AROCLOR 1254, Method: STANDARD PLATE inactive; negative | Test System: AMES SALMONELLA TYPHIMURIUM, Strain/Indicator: TA100, Metabolic Activation: NONE, Method: STANDARD PLATE inactive; negative | Test System: AMES SALMONELLA TYPHIMURIUM, Strain/Indicator: TA100, Metabolic Activation: RAT, LIVER, S-9, AROCLOR 1254, Method: STANDARD PLATE inactive; negative

O=[N+]([O-])c1ccccc1CCl
active: Test System: AMES SALMONELLA TYPHIMURIUM, Strain/Indicator: TA98, Metabolic Activation: RAT, LIVER, S-9, KANECHLOR 500, Method: PREINCUBATION active; positive | Test System: AMES SALMONELLA TYPHIMURIUM, Strain/Indicator: TA100, Metabolic Activation: HAMSTER, LIVER, S-9, AROCLOR 1254 (10%), Method: PREINCUBATION active; positive | [3] active; positive | [4] active; positive | Test System: AMES SALMONELLA TYPHIMURIUM, Strain/Indicator: TA100, Metabolic Activation: RAT, LIVER, S-9, KANECHLOR 500, Method: PREINCUBATION active; positive | [5] active; positive | [7] active; positive
inactive: [1] inactive; negative | [2] inactive; negative | [6] inactive; negative | Test System: AMES SALMONELLA TYPHIMURIUM, Strain/Indicator: TA1537, Metabolic Activation: HAMSTER, LIVER, S-9, AROCLOR 1254 (10%), Method: PREINCUBATION inactive; negative | Test System: AMES SALMONELLA TYPHIMURIUM, Strain/Indicator: TA1537, Metabolic Activation: NONE, Method: PREINCUBATION inactive; negative | Test System: AMES SALMONELLA TYPHIMURIUM, Strain/Indicator: TA1537, Metabolic Activation: RAT, LIVER, S-9, AROCLOR 1254 (10%), Method: PREINCUBATION inactive; negative | Test System: AMES SALMONELLA TYPHIMURIUM, Strain/Indicator: TA1538, Metabolic Activation: NONE, Method: PREINCUBATION inactive; negative
